Measurements as given in US10357484B2, “Heterocyclic compound” (Takeda Pharmaceutical Company Limited, priority 2015, dated 2019).

What was measured:
Format in all cases: biochemical
[1] = molecular target: T1, HDAC1 enzyme (Homo sapiens, UniProt Q13547); test: HDAC1 enzyme inhibitory assay (HDAC-Glo I/II Assay kit); conditions: 1 μM test compound; wells without enzyme = 100% inhibition; read-out: HDAC1 inhibitory rate (%) (1 μM)
T1 construct: transducing full length HDAC1 and HDAC6 genes into Sf-9 insect cells; GST; purchased SignalChem; host or cells: Sf-9 insect cells
T1 sequence (Q13547 whole entry): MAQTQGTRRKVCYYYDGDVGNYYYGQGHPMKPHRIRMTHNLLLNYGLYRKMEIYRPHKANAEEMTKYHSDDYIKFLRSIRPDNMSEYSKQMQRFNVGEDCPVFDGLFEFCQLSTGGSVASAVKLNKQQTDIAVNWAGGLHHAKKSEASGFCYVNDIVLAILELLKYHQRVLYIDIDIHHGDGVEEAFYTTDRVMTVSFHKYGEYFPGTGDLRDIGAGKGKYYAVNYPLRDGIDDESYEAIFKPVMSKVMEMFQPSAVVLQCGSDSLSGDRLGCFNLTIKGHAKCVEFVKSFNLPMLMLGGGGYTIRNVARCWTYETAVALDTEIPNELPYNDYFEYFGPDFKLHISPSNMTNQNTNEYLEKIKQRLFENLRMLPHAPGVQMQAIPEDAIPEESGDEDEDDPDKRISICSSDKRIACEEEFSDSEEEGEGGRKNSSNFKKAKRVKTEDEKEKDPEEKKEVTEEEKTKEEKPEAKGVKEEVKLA
Description: (§1) HDAC1/6 Enzyme Inhibitory Assay
(§2) HDAC1 enzyme and HDAC6 enzyme each prepared by transducing full length HDAC1 and HDAC6 genes into Sf-9 insect cells and purifying by GST affinity column were purchased from SignalChem. Using these enzymes, HDAC1 and/or HDAC6 enzyme inhibitory activities of the compound of the present invention were evaluated. Enzymes were used after preserved at −70° C. HDAC1 or HDAC6 enzyme inhibitory activity of the compound of the present invention was measured using HDAC-Glo™ I/II Assay kit (Promega) according to the following experimental method. The test compound diluted with assay buffer (24 mM Tris-HCl (pH 7.5), 1 mM MgCl2, 0.35 mM KCl, 135 mM NaCl, 0.6 mM Glutathione, 0.01% Tween-20) was added to a 384-well plate by each 2 μL. Then, HDAC1 or HDAC6 enzyme solution diluted with assay buffer was added thereto by each 4 μL, and the plate was incubated at room temperature for 60 min. After incubated, HDAC substrate-Developer solution prepared according to Promega protocol attached to the assay kit was added to the 384-well plate by each 2 μL, and the enzyme reaction was started. After reacting at room temperature for 20 min, luminescence level was measured using plate reader Envision (PerkinElmer). The inhibitory activity of each compound was calculated as a relative activity value when luminescence level in wells without enzyme is considered as 100% inhibition.

[2] = molecular target: T2, HDAC9 enzyme (Homo sapiens, UniProt Q9UKV0); test: HDAC9 enzyme inhibitory assay (HDAC-Glo class IIa); conditions: 1 μM test compound; wells without enzyme = 100% inhibition; read-out: HDAC9 inhibitory rate (%) (1 μM)
T2 construct: transducing full length HDAC9 gene into Sf-9 insect cells; made in house; host or cells: Sf-9 insect cells
T2 sequence (Q9UKV0 whole entry, species assumed): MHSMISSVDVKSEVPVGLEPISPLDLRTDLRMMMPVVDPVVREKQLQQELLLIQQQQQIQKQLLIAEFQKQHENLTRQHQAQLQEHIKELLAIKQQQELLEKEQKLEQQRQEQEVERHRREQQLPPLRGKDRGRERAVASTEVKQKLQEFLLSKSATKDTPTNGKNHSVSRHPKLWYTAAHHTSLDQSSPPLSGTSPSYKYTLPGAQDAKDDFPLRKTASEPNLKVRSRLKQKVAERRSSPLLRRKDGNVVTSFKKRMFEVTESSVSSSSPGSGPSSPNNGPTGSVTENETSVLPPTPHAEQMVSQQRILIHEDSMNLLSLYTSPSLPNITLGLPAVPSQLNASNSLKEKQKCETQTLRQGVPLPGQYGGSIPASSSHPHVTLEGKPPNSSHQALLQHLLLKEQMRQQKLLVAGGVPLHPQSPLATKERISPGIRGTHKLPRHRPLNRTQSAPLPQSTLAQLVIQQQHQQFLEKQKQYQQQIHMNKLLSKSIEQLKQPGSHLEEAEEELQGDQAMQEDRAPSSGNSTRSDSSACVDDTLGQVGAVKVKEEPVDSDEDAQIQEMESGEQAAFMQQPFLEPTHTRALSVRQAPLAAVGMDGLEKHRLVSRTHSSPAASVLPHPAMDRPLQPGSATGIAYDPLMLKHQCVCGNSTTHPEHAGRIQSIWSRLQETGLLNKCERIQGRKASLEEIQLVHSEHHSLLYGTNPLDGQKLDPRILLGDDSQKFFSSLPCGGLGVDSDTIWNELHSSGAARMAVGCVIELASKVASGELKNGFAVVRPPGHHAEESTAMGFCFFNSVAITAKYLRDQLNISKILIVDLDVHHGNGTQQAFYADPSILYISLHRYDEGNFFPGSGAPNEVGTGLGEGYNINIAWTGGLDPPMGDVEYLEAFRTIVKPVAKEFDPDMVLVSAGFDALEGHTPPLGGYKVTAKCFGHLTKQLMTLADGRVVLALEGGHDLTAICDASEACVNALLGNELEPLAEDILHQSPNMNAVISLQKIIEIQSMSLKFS
Description: HDAC9 Enzyme Inhibitory Assay
Enzyme was prepared by transducing full length HDAC9 gene into Sf-9 insect cells and purifying by Ni-NTA affinity column, and HDAC9 enzyme inhibitory activity was evaluated. Enzymes were used after preserved at −70° C. HDAC9 enzyme inhibitory activity of the test compound was measured using HDAC-Glo class IIa (Promega) according to the following experimental method. The test compound diluted with assay buffer (24 mM Tris-HCl (pH 7.5), 1 mM MgCl2, 0.35 mM KCl, 135 mM NaCl, 0.6 mM Glutathione, 0.01% Tween-20) was added to a 384-well plate by each 2 μL. Then, HDAC9 enzyme solution diluted with assay buffer was added thereto by each 2 μL, and the plate was incubated at room temperature for 60 min. After incubated, HDAC substrate-Developer solution prepared according to Promega protocol was added to the 384-well plate by each 4 μL, and the enzyme reaction was started. After reacting at room temperature for 20 min, luminescence level was measured using plate reader Envision (PerkinElmer). The inhibitory activity of each compound was calculated as a relative activity value when luminescence level in wells without enzyme is considered as 100% inhibition.

[3] = molecular target: T3, HDAC6 enzyme (Homo sapiens, UniProt Q9UBN7); test: HDAC6 enzyme inhibitory assay (HDAC-Glo I/II Assay kit); conditions: 1 μM test compound; wells without enzyme = 100% inhibition; read-out: HDAC6 inhibitory rate (%) (1 μM)
T3 construct: transducing full length HDAC1 and HDAC6 genes into Sf-9 insect cells; GST; purchased SignalChem; host or cells: Sf-9 insect cells
T3 sequence (Q9UBN7 1-1215): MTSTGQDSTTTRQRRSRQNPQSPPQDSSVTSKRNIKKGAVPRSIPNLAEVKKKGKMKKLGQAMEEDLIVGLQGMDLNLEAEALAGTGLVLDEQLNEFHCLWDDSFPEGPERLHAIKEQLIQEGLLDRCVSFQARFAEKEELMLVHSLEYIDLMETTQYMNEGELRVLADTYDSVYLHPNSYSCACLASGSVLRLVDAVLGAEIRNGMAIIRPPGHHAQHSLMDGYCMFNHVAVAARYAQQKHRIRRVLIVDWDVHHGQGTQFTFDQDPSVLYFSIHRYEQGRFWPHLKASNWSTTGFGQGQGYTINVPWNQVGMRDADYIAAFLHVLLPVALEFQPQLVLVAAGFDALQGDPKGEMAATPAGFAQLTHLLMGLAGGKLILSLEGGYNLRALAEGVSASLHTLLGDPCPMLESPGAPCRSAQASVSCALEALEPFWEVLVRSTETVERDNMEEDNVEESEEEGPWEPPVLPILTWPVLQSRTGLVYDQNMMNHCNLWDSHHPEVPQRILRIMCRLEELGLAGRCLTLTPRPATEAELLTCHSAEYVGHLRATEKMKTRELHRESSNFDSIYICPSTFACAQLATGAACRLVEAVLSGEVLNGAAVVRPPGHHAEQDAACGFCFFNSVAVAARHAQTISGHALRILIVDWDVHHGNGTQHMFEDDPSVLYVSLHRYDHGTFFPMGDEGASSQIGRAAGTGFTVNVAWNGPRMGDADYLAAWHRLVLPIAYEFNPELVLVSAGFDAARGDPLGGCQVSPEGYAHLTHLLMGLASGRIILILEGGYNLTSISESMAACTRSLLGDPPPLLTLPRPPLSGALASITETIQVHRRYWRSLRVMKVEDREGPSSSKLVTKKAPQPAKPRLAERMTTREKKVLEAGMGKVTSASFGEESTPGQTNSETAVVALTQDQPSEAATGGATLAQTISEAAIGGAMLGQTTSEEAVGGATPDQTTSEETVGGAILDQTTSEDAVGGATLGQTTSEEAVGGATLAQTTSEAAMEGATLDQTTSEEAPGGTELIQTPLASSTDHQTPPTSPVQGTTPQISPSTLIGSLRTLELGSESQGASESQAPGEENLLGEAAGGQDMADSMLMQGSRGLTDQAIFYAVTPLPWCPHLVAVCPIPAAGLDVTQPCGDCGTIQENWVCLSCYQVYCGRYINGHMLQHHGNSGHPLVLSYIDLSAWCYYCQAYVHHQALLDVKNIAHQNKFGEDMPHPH
Description: as §1, §2

inhibition at 1 µM [1] [%] | inhibition at 1 µM [2] [%] | inhibition at 1 µM [3] [%] | Structure (SMILES)
55 | 90 | 99 | C[C@H](c1ccccc1)N1Cc2ncc(-c3noc(C(F)(F)F)n3)cc2C1=O [Example 39, 6-((1R)-1-phenylethyl)-3-(5-(trifluoromethyl)-1,2,4-oxadiazol-3-yl)-6,7-dihydro-5H-pyrrolo[3,4-b]pyridin-5-one]
52 | 93 | 97 | C[C@@H](c1ccccc1)N1Cc2ncc(-c3noc(C(F)(F)F)n3)cc2C1=O [Example 40, 6-((1S)-1-phenylethyl)-3-(5-(trifluoromethyl)-1,2,4-oxadiazol-3-yl)-6,7-dihydro-5H-pyrrolo[3,4-b]pyridin-5-one]
